Experiment [1] deals with Serine/threonine-protein kinase Nek7 (Homo sapiens) (UniProt Q8TDX7). As to the kind of experiment: Selectivity interaction (KinomeScan (DiscoverX)) EUB0001619a NEK7. The settings on record: at 1 µM.
In experiment [2] the target is Vascular endothelial growth factor receptor 1 (Homo sapiens) (UniProt P17948). As to the kind of experiment: Selectivity interaction (KinomeScan (DiscoverX)) EUB0000699a FLT1. As to conditions: at 10 µM.
The target of experiment [3] is T1, Serine/threonine-protein kinase NLK (Homo sapiens) (UniProt Q9UBE8).
T1 sequence (whole entry): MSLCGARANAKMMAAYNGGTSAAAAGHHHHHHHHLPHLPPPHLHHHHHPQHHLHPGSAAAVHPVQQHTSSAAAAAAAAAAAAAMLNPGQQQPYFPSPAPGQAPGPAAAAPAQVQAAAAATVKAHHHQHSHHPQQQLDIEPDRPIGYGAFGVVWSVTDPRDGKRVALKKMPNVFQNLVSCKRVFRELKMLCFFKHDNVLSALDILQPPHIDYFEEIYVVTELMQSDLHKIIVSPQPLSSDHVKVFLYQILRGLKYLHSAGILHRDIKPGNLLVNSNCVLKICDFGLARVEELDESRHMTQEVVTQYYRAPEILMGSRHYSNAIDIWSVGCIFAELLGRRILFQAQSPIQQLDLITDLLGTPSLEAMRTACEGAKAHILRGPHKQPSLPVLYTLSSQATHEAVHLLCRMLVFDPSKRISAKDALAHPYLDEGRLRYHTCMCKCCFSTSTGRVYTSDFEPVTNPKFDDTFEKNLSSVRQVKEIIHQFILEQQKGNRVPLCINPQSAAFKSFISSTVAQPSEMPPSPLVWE
The settings on record: at 10 µM.

Experiment [4] has as its target T2, Serine/threonine-protein kinase ULK3 (Homo sapiens) (UniProt Q6PHR2).
T2 sequence (whole entry): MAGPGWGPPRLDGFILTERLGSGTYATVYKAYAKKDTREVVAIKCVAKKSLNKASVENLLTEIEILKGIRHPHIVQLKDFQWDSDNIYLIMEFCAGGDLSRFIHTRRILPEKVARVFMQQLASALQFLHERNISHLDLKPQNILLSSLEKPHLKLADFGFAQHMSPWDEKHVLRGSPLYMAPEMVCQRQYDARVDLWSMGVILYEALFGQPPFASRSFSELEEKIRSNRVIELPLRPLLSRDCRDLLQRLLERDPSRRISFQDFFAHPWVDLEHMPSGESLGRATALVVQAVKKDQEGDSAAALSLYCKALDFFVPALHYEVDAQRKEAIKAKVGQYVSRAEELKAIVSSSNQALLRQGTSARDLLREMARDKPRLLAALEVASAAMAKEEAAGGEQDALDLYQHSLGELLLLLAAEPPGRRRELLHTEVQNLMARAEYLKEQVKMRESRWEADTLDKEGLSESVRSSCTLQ
In words: Selectivity interaction (ActivX KiNativ screen (kinase selectivity in THP-1 cell lysates)) EUB0000639a ULK3. The settings on record: lysate, at 1 µM. It is filed as subcellular.

Experiment [5] addresses Casein kinase I isoform gamma-3 (Homo sapiens) (UniProt Q9Y6M4). As to the kind of experiment: Selectivity interaction (KinomeScan (DiscoverX)) EUB0000045b CSNK1G3.
The target in experiment [6] is T3, Tyrosine-protein kinase ZAP-70 (Homo sapiens) (UniProt P43403).
T3 sequence (whole entry): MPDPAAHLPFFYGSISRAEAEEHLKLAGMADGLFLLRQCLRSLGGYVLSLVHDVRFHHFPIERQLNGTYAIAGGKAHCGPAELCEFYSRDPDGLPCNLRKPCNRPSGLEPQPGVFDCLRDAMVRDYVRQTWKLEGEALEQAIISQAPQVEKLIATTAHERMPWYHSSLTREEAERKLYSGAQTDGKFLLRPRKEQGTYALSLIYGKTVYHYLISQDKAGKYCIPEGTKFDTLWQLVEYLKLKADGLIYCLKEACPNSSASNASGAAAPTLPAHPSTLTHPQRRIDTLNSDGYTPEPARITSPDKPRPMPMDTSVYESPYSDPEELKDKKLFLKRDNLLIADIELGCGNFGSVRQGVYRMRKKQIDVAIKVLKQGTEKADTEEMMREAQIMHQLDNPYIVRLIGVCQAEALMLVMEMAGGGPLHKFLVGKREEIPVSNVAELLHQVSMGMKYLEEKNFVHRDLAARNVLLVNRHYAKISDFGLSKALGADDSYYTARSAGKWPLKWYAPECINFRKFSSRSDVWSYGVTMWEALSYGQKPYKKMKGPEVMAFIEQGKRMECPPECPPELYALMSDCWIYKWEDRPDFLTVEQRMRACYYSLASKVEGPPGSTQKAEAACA
As to the kind of experiment: Selectivity interaction (KinomeScan (DiscoverX)) EUB0000618a ZAP70. The settings on record: at 10 µM.

The target in experiment [7] is Wee1-like protein kinase 2 (Homo sapiens) (UniProt P0C1S8). As to the kind of experiment: Selectivity interaction (KinomeScan (DiscoverX)) EUB0001079a WEE2. The settings on record: at 1 µM.
Wee1-like protein kinase 2 (Homo sapiens), sequence (P0C1S8 whole entry, looked up): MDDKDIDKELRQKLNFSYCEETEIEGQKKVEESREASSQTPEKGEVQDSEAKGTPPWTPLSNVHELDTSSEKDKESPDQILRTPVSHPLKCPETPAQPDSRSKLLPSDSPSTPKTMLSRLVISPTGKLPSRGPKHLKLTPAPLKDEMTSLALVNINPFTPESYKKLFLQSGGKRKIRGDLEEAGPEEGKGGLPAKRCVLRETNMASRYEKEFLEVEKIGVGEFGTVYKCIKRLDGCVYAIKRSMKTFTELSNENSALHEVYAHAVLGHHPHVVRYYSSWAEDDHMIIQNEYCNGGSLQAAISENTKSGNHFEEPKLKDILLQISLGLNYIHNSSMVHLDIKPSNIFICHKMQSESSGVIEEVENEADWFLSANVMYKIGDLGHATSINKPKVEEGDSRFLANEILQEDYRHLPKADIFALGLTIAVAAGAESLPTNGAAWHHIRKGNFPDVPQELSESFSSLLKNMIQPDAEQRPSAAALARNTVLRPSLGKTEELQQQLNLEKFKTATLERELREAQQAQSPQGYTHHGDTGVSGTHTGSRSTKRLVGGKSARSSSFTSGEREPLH

Casein kinase I isoform gamma-3 (Homo sapiens), sequence (Q9Y6M4 whole entry, looked up, canonical isoform): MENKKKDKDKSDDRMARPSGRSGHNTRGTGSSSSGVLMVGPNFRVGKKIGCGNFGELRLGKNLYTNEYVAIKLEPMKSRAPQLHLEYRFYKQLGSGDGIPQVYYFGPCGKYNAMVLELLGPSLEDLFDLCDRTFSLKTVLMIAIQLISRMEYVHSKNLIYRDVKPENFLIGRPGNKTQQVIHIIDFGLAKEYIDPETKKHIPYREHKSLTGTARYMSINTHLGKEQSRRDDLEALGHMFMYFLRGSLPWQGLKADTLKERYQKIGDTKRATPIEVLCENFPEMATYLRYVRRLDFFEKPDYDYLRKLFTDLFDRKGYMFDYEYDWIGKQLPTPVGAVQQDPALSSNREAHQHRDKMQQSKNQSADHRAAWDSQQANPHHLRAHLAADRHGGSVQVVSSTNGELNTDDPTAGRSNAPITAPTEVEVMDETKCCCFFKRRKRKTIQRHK
Serine/threonine-protein kinase Nek7 (Homo sapiens), sequence (Q8TDX7 whole entry, looked up): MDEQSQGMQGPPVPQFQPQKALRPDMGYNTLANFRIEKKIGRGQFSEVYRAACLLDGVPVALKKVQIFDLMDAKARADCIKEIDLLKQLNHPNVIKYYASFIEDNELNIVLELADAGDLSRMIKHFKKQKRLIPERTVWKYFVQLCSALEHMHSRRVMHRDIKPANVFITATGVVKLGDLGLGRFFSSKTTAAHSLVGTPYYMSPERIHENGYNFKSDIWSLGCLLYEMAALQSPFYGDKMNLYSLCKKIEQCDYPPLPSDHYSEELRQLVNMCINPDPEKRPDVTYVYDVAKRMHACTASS
Vascular endothelial growth factor receptor 1 (Homo sapiens), sequence (P17948 whole entry): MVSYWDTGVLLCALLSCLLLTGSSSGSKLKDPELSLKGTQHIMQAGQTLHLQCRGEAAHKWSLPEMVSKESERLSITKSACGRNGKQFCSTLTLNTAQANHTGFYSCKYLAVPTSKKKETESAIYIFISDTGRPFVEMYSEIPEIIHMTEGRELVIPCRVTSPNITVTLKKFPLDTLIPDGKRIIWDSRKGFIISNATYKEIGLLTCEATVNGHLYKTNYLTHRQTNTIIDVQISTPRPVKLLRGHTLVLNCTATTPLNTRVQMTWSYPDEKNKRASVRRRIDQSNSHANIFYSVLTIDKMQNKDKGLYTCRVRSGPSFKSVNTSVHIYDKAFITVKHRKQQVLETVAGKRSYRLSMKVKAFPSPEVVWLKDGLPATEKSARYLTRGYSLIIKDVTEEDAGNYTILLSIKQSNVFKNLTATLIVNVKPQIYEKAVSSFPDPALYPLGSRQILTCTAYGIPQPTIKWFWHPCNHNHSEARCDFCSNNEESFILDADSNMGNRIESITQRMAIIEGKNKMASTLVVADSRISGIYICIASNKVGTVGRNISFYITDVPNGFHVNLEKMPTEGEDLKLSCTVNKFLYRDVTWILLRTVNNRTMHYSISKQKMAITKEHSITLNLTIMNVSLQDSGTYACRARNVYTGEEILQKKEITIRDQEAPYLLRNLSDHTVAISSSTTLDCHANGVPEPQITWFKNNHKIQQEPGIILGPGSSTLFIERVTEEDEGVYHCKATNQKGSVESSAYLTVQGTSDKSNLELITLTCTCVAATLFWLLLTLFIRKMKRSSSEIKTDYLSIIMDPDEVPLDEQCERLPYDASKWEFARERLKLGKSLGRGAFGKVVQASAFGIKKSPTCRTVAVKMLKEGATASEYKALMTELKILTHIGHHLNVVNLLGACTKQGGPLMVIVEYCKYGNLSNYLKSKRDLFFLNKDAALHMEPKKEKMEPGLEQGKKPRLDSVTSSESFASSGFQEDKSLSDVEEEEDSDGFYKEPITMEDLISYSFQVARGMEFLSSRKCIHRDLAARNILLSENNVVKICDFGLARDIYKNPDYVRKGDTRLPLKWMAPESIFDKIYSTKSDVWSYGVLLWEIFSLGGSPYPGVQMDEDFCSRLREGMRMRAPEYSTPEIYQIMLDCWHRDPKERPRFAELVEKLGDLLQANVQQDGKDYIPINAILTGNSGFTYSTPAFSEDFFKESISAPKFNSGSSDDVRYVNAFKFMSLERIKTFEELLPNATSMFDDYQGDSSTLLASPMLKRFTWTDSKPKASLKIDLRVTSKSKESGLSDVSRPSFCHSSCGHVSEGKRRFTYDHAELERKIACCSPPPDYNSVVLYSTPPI

As to `N#Cc1cccc(-c2c[nH]c3ncnc(N4CCOCC4)c23)c1`, in experiment [1], the % of control stood at 100%.
In experiment [2], `CCN(CC)CCCCNc1ncc2cc(-c3cc(OC)cc(OC)c3)c(NC(=O)NC(C)(C)C)nc2n1` had a % of control of 8%.
In the case of `Cc1cc([C@@H](C)Nc2ccccc2C(=O)O)c2nc(N3CCOCC3)cc(=O)n2c1` [AZD-6482], the % of control in experiment [3] stood at 94%.
With `CC[C@@H]1[C@H](F)C(=O)N[C@@H]1COc1nccc2cc(C(N)=O)c(OC)cc12` [ZIMLOVISERTIB], the % of inhibition in experiment [4] is -4.6%.
Consider `C=CC(=O)Nc1cc(-n2c(=O)ccc3cnc4ccc(-c5ccc(NS(C)(=O)=O)cc5)cc4c32)ccc1C`, for which the % of control in experiment [5] (at 1 µM) amounted to 100%; in experiment [5] (at 10 µM), 84%.
`O[C@H]1CC[C@H](Nc2ncc3nc(Nc4c(F)cc(F)cc4F)n([C@H]4CCOC4)c3n2)CC1` yielded a % of control in experiment [6] of 100%.
In turn, `Nc1cnc(N2CCc3cc(S(=O)(=O)Nc4c(F)cc(Cl)cc4F)cc(N4CCCC4=O)c32)nc1` [TP-020n] showed a % of control in experiment [7] of 93%.
